Here are results for 10 compounds from patent US10336762B2 (priority 2017, dated 2019).

Structures are written as SMILES.

The subject of one test is TNFα. The experiment in a line: cells. The format is cell-based, human. The note with it: Homo sapiens, Monocyte, LPS-stimulated human monocytes, TNFα content; read-out: EC50 TNF.
Another test addresses IRAK4 enzyme (Homo sapiens (Human), UniProt Q9NWZ3). The experiment in a line: biochemical. The format is biochemical. The note with it: IRAK4 enzyme, TR-FRET, 500 μM ATP.

Sequence of IRAK4 enzyme (Q9NWZ3 whole entry): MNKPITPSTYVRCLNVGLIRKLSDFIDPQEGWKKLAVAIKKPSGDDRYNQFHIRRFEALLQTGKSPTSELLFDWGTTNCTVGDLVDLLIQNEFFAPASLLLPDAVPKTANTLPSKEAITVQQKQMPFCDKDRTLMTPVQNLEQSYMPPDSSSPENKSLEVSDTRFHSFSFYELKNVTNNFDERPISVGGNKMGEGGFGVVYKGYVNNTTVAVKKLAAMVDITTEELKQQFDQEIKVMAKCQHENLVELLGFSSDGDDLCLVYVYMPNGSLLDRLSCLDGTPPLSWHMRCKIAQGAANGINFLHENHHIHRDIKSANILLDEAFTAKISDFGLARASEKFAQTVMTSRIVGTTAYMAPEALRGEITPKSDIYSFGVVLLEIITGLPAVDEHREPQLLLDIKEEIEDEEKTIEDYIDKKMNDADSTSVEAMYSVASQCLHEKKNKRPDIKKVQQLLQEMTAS

In general, EC50 refers to the concentration giving half of the maximal effect. A word on the IC50: it is the midpoint of a concentration-inhibition curve. Lower therefore signals higher potency. For `CC(C)Nc1cc(-c2ccc3cc(C#N)cnn23)ncc1C(=O)NC1CCC(NC(=O)C2(C)COC2)CC1` (centres unmarked) [Example 134, 6-(3-cyanopyrrolo[1,2-b]pyridazin-7-yl)-4-(isopropylamino)-N-((1r,4r)-4-(3-methyloxetane-3-carboxamido)cyclohexyl)nicotinamide], the 50% effective concentration (EC50) in the test on TNFα worked out at 101 nM. For the same compound, the half-maximal inhibitory concentration (IC50) on IRAK4 enzyme was 1 nM.
Regarding `CC(C)Nc1cc(-c2ccc3cc(C#N)cnn23)ncc1C(=O)NC1CCC(NC(=O)C(C)(C)O)CC1` (centres unmarked) [Example 135, 6-(3-cyanopyrrolo[1,2-b]pyridazin-7-yl)-N-((1r,4r)-4-(2-hydroxy-2-methylpropanamido)cyclo-hexyl)-4-(isopropylamino) nicotinamide], in the test on TNFα, the half-maximal effective concentration (EC50) came out at 130 nM. The compound further displayed an IC50 against IRAK4 enzyme of 2 nM.
The like results for `CC1(F)CC(Nc2cc(-c3ccc4cc(C#N)cnn34)ncc2C(=O)NC[C@@H](F)C(C)(C)O)C1` (stereo partly drawn) [Example 136, (R)-6-(3-cyanopyrrolo[1,2-b]pyridazin-7-yl)-N-(2-fluoro-3-hydroxy-3-methylbutyl)-4-((3-fluoro-3-methylcyclobutyl)amino) nicotinamide] were, in that order, 163 nM and 2 nM.
For the compound `CC(C)(O)[C@H](F)CNC(=O)c1cnc(-c2ccc3cc(C#N)cnn23)cc1NCC1CC1(F)F` (stereo partly drawn) [Example 137, 6-(3-cyanopyrrolo[1,2-b]pyridazin-7-yl)-4-(((2,2-difluorocyclopropyl)methyl)amino)-N-((R)-2-fluoro-3-hydroxy-3-methylbutyl)nicotinamide], the EC50 with TNFα worked out at 140 nM. This compound registered a 50% inhibitory concentration (IC50) against IRAK4 enzyme of 2 nM.
For `CC(C)(O)Cn1cc(Nc2cc(-c3ccc4cc(C#N)cnn34)ncc2C(=O)NC[C@@H](F)C(C)(C)O)cn1` [Example 138, (R)-6-(3-cyanopyrrolo[1,2-b]pyridazin-7-yl)-N-(2-fluoro-3-hydroxy-3-methylbutyl)-4-((1-(2-hydroxy-2-methylpropyl)-1H-pyrazol-4-yl)amino)nicotinamide] the same measures were 117 nM and 1 nM.
Turning to `CC(C)Nc1cc(-c2ccc3cc(C#N)cnn23)ncc1C(=O)NC1CCS(=O)(=O)CC1` [Example 139, 6-(3-cyanopyrrolo[1,2-b]pyridazin-7-yl)-N-(1,1-dioxidotetrahydro-2H-thiopyran-4-yl)-4-(isopropylamino) nicotinamide], the 50% effective concentration (EC50) with TNFα was determined as 254 nM. Moreover, at IRAK4 enzyme, the IC50 was 19 nM.
The like results for `CC(C)(O)[C@H](F)CNC(=O)c1cnc(-c2ccc3cc(C#N)cnn23)cc1Nc1ccc(C#N)cc1` [Example 140, (R)-4-((4-cyanophenyl)amino)-6-(3-cyanopyrrolo[1,2-b]pyridazin-7-yl)-N-(2-fluoro-3-hydroxy-3-methylbutyl)nicotinamide] were, in that order, 58 nM and under 1 nM.
On to `CC(C)(O)[C@H](F)CNC(=O)c1cnc(-c2ccc3cc(C#N)cnn23)cc1Nc1cccc(C#N)c1` [Example 141, (R)-4-((3-cyanophenyl)amino)-6-(3-cyano-pyrrolo[1,2-b]pyridazin-7-yl)-N-(2-fluoro-3-hydroxy-3-methylbutyl)nicotinamide], for which, in the test with TNFα, the half-maximal effective concentration (EC50) came out at 70 nM. On IRAK4 enzyme, the half-maximal inhibitory concentration (IC50) was under 1 nM.
For `Cc1nsc(Nc2cc(-c3ccc4cc(C#N)cnn34)ncc2C(=O)NC[C@@H](F)C(C)(C)O)n1` [Example 142, (R)-6-(3-cyanopyrrolo[1,2-b]pyridazin-7-yl)-N-(2-fluoro-3-hydroxy-3-methylbutyl)-4-((3-methyl-1,2,4-thiadiazol-5-yl)amino) nicotinamide], in the test with TNFα, the 50% effective concentration (EC50) worked out at 169 nM. This compound also had a concentration for half-maximal inhibition (IC50) against IRAK4 enzyme of 4 nM.
For `CC(C)(O)[C@H](F)CNC(=O)c1cnc(-c2ccc3cc(C#N)cnn23)cc1Nc1ccccc1C#N` [Example 143, (R)-4-((2-cyanophenyl)amino)-6-(3-cyanopyrrolo[1,2-b]pyridazin-7-yl)-N-(2-fluoro-3-hydroxy-3-methylbutyl)nicotinamide], in the test with TNFα, the EC50 amounted to 720 nM. The IC50 on IRAK4 enzyme stood at 18 nM.
